# Source: paper PMC9080489, “Synthesis and biological evaluation of 2-aryl-benzimidazole derivatives of dehydroabietic acid as novel tubulin polymerization inhibitors” (RSC Advances, 2018)
# Like-named read-outs stand apart in the source and are kept apart here.
# What was measured:
# [1] = test system: human hepatocarcinoma cell line (SMMC-7721); assay: MTT cytotoxic assay, SMMC-7721; type: cell-based; details: MTT, 48 h exposure, read-out: IC50 SMMC-7721
# Procedure: (§1) The in vitro antiproliferative activity of DAA derivatives (1–5, 6a–k, 7a–k) were evaluated by MTT assay against human hepatocarcinoma cell line (SMMC-7721), human breast cancer cell line (MDA-MB-231), human cervical carcinoma cell line (HeLa), mouse colon cancer cell line (CT-26) and human normal hepatocyte cell line (QSG-7701). Nocodazole was co-assayed as the positive control and DMEM culture medium containing 0.1% DMSO was used as negative control. The results of the tested compounds expressed as IC50 values (concentration required to inhibit tumor cell proliferation by 50%) were presented in Table 1.
# (§2) The human hepatocarcinoma cell line (SMMC-7721), human breast cancer cell line (MDA-MB-231), human cervical carcinoma cell line (HeLa), mouse colon cancer cell line (CT-26) and human normal hepatocyte cells (QSG-7701) used in this study were all obtained from Keygene Biotech., China. These cell lines were maintained in DMEM medium supplemented with 10% heat-inactivated fetal bovine serum in a humidified atmosphere of 5% CO2 at 37 °C.
# (§3) The in vitro cytotoxic activities of the benzimidazole derivatives of dehydroabietic acid were evaluated against tested cell lines via the MTT colorimetric method. Briefly, different tumor cells were grown in DMEM medium supplemented with 10% fetal bovine serum, penicillin (100 U mL^−1), and streptomycin (50 μg mL^−1). Cells were harvested at log phase of growth and seeded in 96-well plates (100 μL per well at a density of 2 × 10^5 cells mL^−1). After 24 h incubation at 37 °C and 5% CO2 to allow cell attachment, cultures were exposed to various concentrations of the isolated compounds for 48 h. Finally, MTT solution (2.5 mg mL^−1 in PBS) was added (40 μL per well). Plates were further incubated for 4 h at 37 °C, and the formazan crystals formed were dissolved by adding 150 μL per well of DMSO. Absorption at 570 nm was measured with an ELISA plate reader. The results were expressed as IC50 values with standard deviations, which was defined as the concentration at which 50% survival of cells was discerned. Nocodazole was co-assayed as positive control.
# [2] = test system: human breast cancer cell line (MDA-MB-231); assay: MTT cytotoxic assay, MDA-MB-231; type: cell-based; details: MDA-MB-231, MTT, 48 h exposure, read-out: IC50 MDA-MB-231
# Procedure: as §1, §2, §3
# [3] = test system: human cervical carcinoma cell line (HeLa); assay: MTT cytotoxic assay, HeLa; type: cell-based; details: MTT, 48 h exposure, read-out: IC50 HeLa
# Procedure: as §1, §2, §3
# [4] = test system: mouse colon cancer cell line (CT-26); assay: MTT cytotoxic assay, CT-26; type: cell-based; details: MTT, 48 h exposure, read-out: IC50 CT-26
# Procedure: as §1, §2, §3
# [5] = test system: human normal hepatocyte cell line (QSG-7701); assay: MTT cytotoxic assay, QSG-7701; type: cell-based; details: QSG7701, 48 h exposure
# Procedure: as §1, §2, §3
# Porcine brain tubulin = target: T1, Porcine brain tubulin (Sus scrofa, UniProt P02550+P02554); assay: In vitro tubulin polymerization inhibition assay (OD340); type: biochemical; details: 10 μM, 37 °C, 1 h, versus blank control
# T1 construct: purchased Cytoskeleton, Inc. BK004P; host or cells: porcine brain tissue
# T1 sequence (P02554 whole entry): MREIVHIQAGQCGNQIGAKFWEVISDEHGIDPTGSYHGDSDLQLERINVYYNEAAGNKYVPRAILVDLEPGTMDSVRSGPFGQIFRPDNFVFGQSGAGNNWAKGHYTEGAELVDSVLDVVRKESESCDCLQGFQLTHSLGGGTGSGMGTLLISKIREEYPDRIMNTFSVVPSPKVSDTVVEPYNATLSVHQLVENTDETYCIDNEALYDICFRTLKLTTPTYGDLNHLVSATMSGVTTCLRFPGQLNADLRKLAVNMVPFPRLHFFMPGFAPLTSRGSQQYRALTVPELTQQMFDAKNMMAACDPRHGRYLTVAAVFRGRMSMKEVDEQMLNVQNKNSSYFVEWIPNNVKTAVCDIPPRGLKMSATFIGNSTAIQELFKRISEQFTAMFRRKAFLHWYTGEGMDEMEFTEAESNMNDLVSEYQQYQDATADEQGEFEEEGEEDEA
# T1 sequence (P02550 whole entry): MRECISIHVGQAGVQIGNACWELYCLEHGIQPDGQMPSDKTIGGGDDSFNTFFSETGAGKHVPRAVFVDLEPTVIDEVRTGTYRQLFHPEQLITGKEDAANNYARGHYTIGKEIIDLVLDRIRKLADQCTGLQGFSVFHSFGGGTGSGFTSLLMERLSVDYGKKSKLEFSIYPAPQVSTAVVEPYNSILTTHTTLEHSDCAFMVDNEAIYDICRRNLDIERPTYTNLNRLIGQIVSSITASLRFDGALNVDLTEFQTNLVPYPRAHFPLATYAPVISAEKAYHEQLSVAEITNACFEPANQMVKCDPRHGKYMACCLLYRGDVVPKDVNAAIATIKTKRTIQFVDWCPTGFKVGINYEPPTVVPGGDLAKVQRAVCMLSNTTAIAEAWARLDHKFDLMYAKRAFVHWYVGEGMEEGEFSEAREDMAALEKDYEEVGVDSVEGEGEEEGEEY
# Procedure: The in vitro tubulin polymerization inhibition assay was carried out by using the Tubulin Polymerization Assay Kit (Cytoskeleton, Inc., USA) according to the protocol in the manual. Porcine brain tubulin was incubated with compound 6j at concentrations of 5 and 10 μM. The positive control colchicine and negative control taxol were co-assayed at the concentration of 10 μM, and G-PEM buffer was used as the blank control.
# The tubulin polymerization assay was accomplished using a commercial assay kit (cat. #BK004P) purchased from Cytoskeleton, Inc. (Danvers, MA, USA). Tubulin isolated from porcine brain tissue was used in this tubulin polymerization assay kit. Tubulin polymerizations are followed by an increase in optical density at 340 nm (OD340) over a 60 min period at 37 °C due to the light scattered by microtubule polymer. At first, tubulin (4 mg) was disovled in 1 mL of G-PEM buffer containing 80 mM piperazine-N,N′-bis(2-ethanesulfonic acid) sequisodium salt (PIPES, pH 6.9), 2.0 mM MgCl2, 0.5 mM EGTA and 1 mM GTP to prepare tubulin solution. Subsequently, 10 μL of 10 × stock solutions of the tested compounds at different concentrations were added to a prewarmed 96-well plate and incubated at 37 °C for 2 min, then 90 μL of tubulin solution was also added into each well to initiate the reaction. The optical intensity (OD340) of each well was recorded every 60 s for 60 min (Cytation 3 Cell Imaging Multi-Mode Reader, BioTek Instruments, Inc., USA). Colchicine and taxol were co-assayed as the positive control and negative control, respectively. G-PEM buffer was used as the blank control.
SMILES,melting point,"IC50 ([1]; Homo sapiens, SMMC-7721, 48 h)",IC50 [2],IC50 [3],"IC50 ([4]; Mus musculus, CT26, 48 h)",IC50 [5],IC50 [4],IC50 [1],effect on tubulin polymerization speed and final absorbance (OD340) (Porcine brain tubulin)
"COC(=O)[C@]1(C)CCC[C@]2(C)c3cc(Br)c4nc(-c5ccccc5)[nH]c4c3CCC12 (stereo partly drawn) [Compound 6a, Methyl 2′-phenyl-12-bromo-13,14-imidazolyl-deisopropyl-dehydroabietate]",123 to 125 °C,12.5 ± 0.45 µM,41.7 ± 2.06 µM,16.2 ± 1.73 µM,6.34 ± 0.83 µM,> 50 µM,,,
"COC(=O)[C@]1(C)CCC[C@]2(C)c3cc(Br)c4nc(-c5ccc(F)cc5)[nH]c4c3CCC12 (stereo partly drawn) [Compound 6c, Methyl 2′-(4-fluorophenyl)-12-bromo-13,14-imidazolyl-deisopropyl-dehydroabietate]",149 to 151 °C,,18.2 ± 1.2 µM,8.01 ± 0.76 µM,< 5 µM,> 50 µM,2.82 ± 0.97 µM,,
"COC(=O)[C@]1(C)CCC[C@]2(C)c3cc(Br)c4nc(-c5cccc(F)c5)[nH]c4c3CCC12 (stereo partly drawn) [Compound 6d, Methyl 2′-(3-fluorophenyl)-12-bromo-13,14-imidazolyl-deisopropyl-dehydroabietate]",142 to 144 °C,< 5 µM,12 ± 1.31 µM,17.7 ± 3.02 µM,< 5 µM,> 50 µM,3.39 ± 0.33 µM,5.27 ± 0.27 µM,
"COC(=O)[C@]1(C)CCC[C@]2(C)c3cc(Br)c4nc(-c5c[nH]c6ccccc56)[nH]c4c3CCC12 (stereo partly drawn) [Compound 6k, Methyl 2′-(1H-indol-3-yl)-12-bromo-13,14-imidazolyl-deisopropyl-dehydroabietate]",139 to 140 °C,,0.56 ± 0.13 µM,0.98 ± 0.11 µM,,8.43 ± 1.06 µM,,,
"COC(=O)Nc1nc2ccc(C(=O)c3cccs3)cc2[nH]1 [Nocodazole, nocodazole, reference compound]",,0.92 ± 0.07 µM,0.76 ± 0.06 µM,0.87 ± 0.05 µM,1.37 ± 0.11 µM,13.8 ± 1.08 µM,,,
"CC(=O)O[C@H]1C(=O)[C@@]2(C)[C@H]([C@H](OC(=O)c3ccccc3)[C@]3(O)C[C@H](OC(=O)[C@H](O)[C@@H](NC(=O)c4ccccc4)c4ccccc4)C(C)=C1C3(C)C)[C@]1(OC(C)=O)CO[C@@H]1C[C@@H]2O [taxol, reference compound]",,,,,,,,,obviously increased the speed of tubulin polymerization and the final absorbance

# More lines, main results first:
melting point,SMILES,"IC50 ([1]; Homo sapiens, SMMC-7721, 48 h)",IC50 [2],IC50 [3],"IC50 ([4]; Mus musculus, CT26, 48 h)",IC50 [5],IC50 [4],IC50 [1],effect on tubulin polymerization speed and final absorbance (OD340) (Porcine brain tubulin)
153 to 155 °C,"COC(=O)[C@]1(C)CCC[C@]2(C)c3cc(-c4cc(OC)c(OC)c(OC)c4)c4nc(-c5ccccc5)[nH]c4c3CCC12 (stereo partly drawn) [Compound 7a, Methyl 2′-phenyl-12-(3,4,5-trimethoxyphenyl)-13,14-imidazolyl-deisopropyl-dehydroabietate]",9.38 ± 1.02 µM,> 50 µM,13.1 ± 1.7 µM,8.25 ± 0.5 µM,> 50 µM,,,
139 to 141 °C,"COC(=O)[C@]1(C)CCC[C@]2(C)c3cc(-c4cc(OC)c(OC)c(OC)c4)c4nc(-c5ccc(F)cc5)[nH]c4c3CCC12 (stereo partly drawn) [Compound 7c, Methyl 2′-(4-fluorophenyl)-12-(3,4,5-trimethoxyphenyl)-13,14-imidazolyl-deisopropyl-dehydroabietate]",< 5 µM,0.69 ± 0.21 µM,7.63 ± 1.03 µM,8.95 ± 0.17 µM,36.1 ± 2.32 µM,,3.29 ± 0.13 µM,
156 to 158 °C,"COC(=O)[C@]1(C)CCC[C@]2(C)c3cc(-c4cc(OC)c(OC)c(OC)c4)c4nc(-c5cccc(F)c5)[nH]c4c3CCC12 (stereo partly drawn) [Compound 7d, Methyl 2′-(3-fluorophenyl)-12-(3,4,5-trimethoxyphenyl)-13,14-imidazolyl-deisopropyl-dehydroabietate]",> 50 µM,6.42 ± 0.04 µM,12.9 ± 1.26 µM,< 5 µM,> 50 µM,2.7 ± 0.12 µM,,
155 to 157 °C,"COC(=O)[C@]1(C)CCC[C@]2(C)c3cc(-c4cc(OC)c(OC)c(OC)c4)c4nc(-c5ccccc5F)[nH]c4c3CCC12 (stereo partly drawn) [Compound 7e, Methyl 2′-(2-fluorophenyl)-12-(3,4,5-trimethoxyphenyl)-13,14-imidazolyl-deisopropyl-dehydroabietate]",> 50 µM,18.2 ± 1.32 µM,18.3 ± 2.98 µM,10.4 ± 1.91 µM,,,,
168 to 170 °C,"COC(=O)[C@]1(C)CCC[C@]2(C)c3cc(-c4cc(OC)c(OC)c(OC)c4)c4nc(-c5ccc(Cl)cc5)[nH]c4c3CCC12 (stereo partly drawn) [Compound 7f, Methyl 2′-(4-chlorophenyl)-12-(3,4,5-trimethoxyphenyl)-13,14-imidazolyl-deisopropyl-dehydroabietate]",11 ± 2.68 µM,10.1 ± 1.38 µM,17.2 ± 2.32 µM,< 5 µM,> 50 µM,3.44 ± 0.75 µM,,
157 to 159 °C,"COC(=O)[C@]1(C)CCC[C@]2(C)c3cc(-c4cc(OC)c(OC)c(OC)c4)c4nc(-c5ccccc5Cl)[nH]c4c3CCC12 (stereo partly drawn) [Compound 7g, Methyl 2′-(2-chlorophenyl)-12-(3,4,5-trimethoxyphenyl)-13,14-imidazolyl-deisopropyl-dehydroabietate]",> 50 µM,15.7 ± 0.87 µM,> 50 µM,13.4 ± 2.35 µM,,,,
150 to 152 °C,"COC(=O)[C@]1(C)CCC[C@]2(C)c3cc(-c4cc(OC)c(OC)c(OC)c4)c4nc(-c5ccc(Br)cc5)[nH]c4c3CCC12 (stereo partly drawn) [Compound 7h, Methyl 2′-(4-bromophenyl)-12-(3,4,5-trimethoxyphenyl)-13,14-imidazolyl-deisopropyl-dehydroabietate]",> 50 µM,8.84 ± 1.08 µM,29.9 ± 3.07 µM,< 5 µM,> 50 µM,2.76 ± 0.26 µM,,
153 to 155 °C,"COC(=O)[C@]1(C)CCC[C@]2(C)c3cc(-c4cc(OC)c(OC)c(OC)c4)c4nc(-c5ccc(OC)cc5)[nH]c4c3CCC12 (stereo partly drawn) [Compound 7i, Methyl 2′-(4-methoxyphenyl)-12-(3,4,5-trimethoxyphenyl)-13,14-imidazolyl-deisopropyl-dehydroabietate]",> 50 µM,> 50 µM,> 50 µM,23.5 ± 2.38 µM,,,,
189 to 191 °C,"COC(=O)[C@]1(C)CCC[C@]2(C)c3cc(-c4cc(OC)c(OC)c(OC)c4)c4nc(-c5ccc6[nH]ccc6c5)[nH]c4c3CCC12 (stereo partly drawn) [Compound 7j, Methyl 2′-(1H-indol-5-yl)-12-(3,4,5-trimethoxyphenyl)-13,14-imidazolyl-deisopropyl-dehydroabietate]",,0.83 ± 0.2 µM,3.75 ± 0.78 µM,,12.8 ± 1.27 µM,,,
199 to 201 °C,"COC(=O)[C@]1(C)CCC[C@]2(C)c3cc(-c4cc(OC)c(OC)c(OC)c4)c4nc(-c5c[nH]c6ccccc56)[nH]c4c3CCC12 (stereo partly drawn) [Compound 7k, Methyl 2′-(1H-indol-3-yl)-12-(3,4,5-trimethoxyphenyl)-13,14-imidazolyl-deisopropyl-dehydroabietate]",,0.21 ± 0.02 µM,5.86 ± 0.63 µM,,11.8 ± 2.12 µM,,,
